From patent US20090197932A1, “IMIDAZOLINYLMETHYL ARYL SULFONAMIDE” (priority 2008, published 2009) come the findings set out here.

In one series the target is T1, alpha-1A adrenoceptors (Homo sapiens, UniProt P35348).
T1 sequence (P35348 1-466): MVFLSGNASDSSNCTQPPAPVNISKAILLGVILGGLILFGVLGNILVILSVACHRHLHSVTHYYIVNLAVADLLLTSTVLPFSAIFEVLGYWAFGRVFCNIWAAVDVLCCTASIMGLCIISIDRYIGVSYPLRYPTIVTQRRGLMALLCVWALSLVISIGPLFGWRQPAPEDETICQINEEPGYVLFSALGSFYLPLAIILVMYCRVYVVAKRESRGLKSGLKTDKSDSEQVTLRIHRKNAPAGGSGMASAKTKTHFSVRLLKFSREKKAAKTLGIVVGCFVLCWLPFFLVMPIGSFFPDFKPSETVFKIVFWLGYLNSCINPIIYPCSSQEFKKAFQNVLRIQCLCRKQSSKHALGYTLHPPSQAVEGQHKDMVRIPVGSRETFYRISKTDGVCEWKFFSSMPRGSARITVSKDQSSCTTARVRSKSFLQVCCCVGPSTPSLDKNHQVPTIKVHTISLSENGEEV
Kind of series: alpha-1A adrenoceptor partial agonist activity (intrinsic activity and pEC50).

For series [1], the system named is Female, Dutch Belted rabbits. Nature of the series: Anesthetized rabbit model: change in IUP and MAP, slope of IUP response. The format is in vivo. As to conditions: i.v. As for the experimental part: In general, IUP is the intraurethral pressure and is measured as the 2 minute mean from the first peak of the urethral response (FIG. 1). MAP is the mean arterial blood pressure and is measured as the average blood pressure during the 2 minute section where IUP is measured. The durability is the slope of the IUP response in mmHg/min and is calculated immediately after the 2 minute IUP response for 5 minutes (2-7 minutes post the first peak) for the top 3 doses.
Surgery: Female, Dutch Belted rabbits (1.20-2.0 kg, Myrtle's Rabbitry, Tenn.) were anesthetized with isoflurane (3.0% at 2 to 4 L/min) and urethane (1.5 grams/kg, s.c.). In preparation for surgery, the rabbits were shaved, scrubbed (i.e., perineal area, ventral neck, and ventral, caudal surface of the abdomen) and were administered Ringers Lactate Solution (s.c.) to maintain fluids. […]
Experiment: The arterial cannula was connected to a P23XL, pressure transducer (Grass Technologies, West Warwick, R.I.) and the arterial pressure transducer and Unisensor urethral transducer catheter were connected to an Gould 13-6615-50 amplifier (Data Sciences International, St. Paul, Minn.) and Gould TA6000 recorder (Data Sciences International, St. Paul, Minn.) in parallel. All data was analyzed using Power Lab Chart version 5.0.2 (ADInstruments, Colorado Springs, Colo.) data acquisition system. […]
Measurements: The change in IUP and MAP from baseline were measured as well as the slope of the IUP response. MAP was first calculated according to the following formula, where Pd is diastolic pressure and Ps is systolic pressure: MAP=Pd+1/3(Ps−Pd). Pre-dose baseline values for IUP and MAP were assessed during a 2 min period just prior to vehicle or test compound administration. Post-dose values for IUP or MAP were determined during a 2 min period at the first peak in the IUP tracing following vehicle or test compound administration. The change in IUP and MAP induced by vehicle or test compound were then calculated by subtracting the pre-dose value from the post-dose value. […]

Series [2] concerns Female Yucatan Micro-Swine. Nature of the series: Conscious pig model: IUP, MAP and HR during infusion. The format is in vivo. The following applies: infusion via ear vein for two hours. How it is done: Sling Training: Female Yucatan Micro-Swine were trained to stay in a sling for up to 4 hours. Swine were exposed to progressively longer sling durations per IACUC sling-training guideline.
Surgical Instrumentation: Female Yucatan Micro-swine were instrumented with a telemetry device with both pressure and ECG monitoring capabilities (Data Sciences International St Paul Minn.). In addition, a Bardport low profile titanium VAP was placed subcutanteously for blood sampling. All devices were implanted by the surgical veterinarian at Roche Palo Alto. Briefly, the telemetry probe body was placed subcutaneously in the cervical region. The intra-arterial pressure catheter was advanced via the superficial cervical artery into the subclavian artery for blood pressure measurement. […]
Experiment: After the swine was fully awake and stable (usually approximately 1 hour post wake up), baseline blood pressure, IUP, and heart rate parameters were determined. […]
Data Generating and Analysis Systems: Cardiovascular readings were generated by the TL11M3-D70-PCP (Data Sciences International, St. Paul, Minn.) telemetry device and associated hardware. […] IUP was monitored by a solid state catheter connected to a TA6000 Polygraph (Data Sciences International, St. Paul, Minn.). […]

Take `CS(=O)(=O)Nc1ccc(CC2=NCCN2)c(Br)c1Cl` [Formula I, N-[3-Bromo-2-chloro-4-(4,5-dihydro-1H-imidazol-2-ylmethyl)-phenyl]-methanesulfonamide]: the “intrinsic activity, or efficacy, as a partial agonist” value on alpha-1A adrenoceptors (ideally between 0.35 to 0.60) was found to be 0.38. At alpha-1A adrenoceptors (read-out: affinity, or pEC50 value (converted)), the EC50 is 251 nM. For the same compound, the “maximum increase in MAP” value in series [1] is 9.75 mmHg. The “selectivity for enhancement of intraurethral pressure (IUP) over blood pressure (MAP)” value in series [1] (at the 10 mmHg change in IUP level (ED10 of MAP/ED10 of IUP)) came to 38 fold. Also, the “durability of IUP response over time” value in series [1] (slope of IUP response 2-7 minutes post the first peak, top 3 doses) was “increased durability of IUP response over time”. Further, the IUP durability entry in series [2] is given as “exceptional IUP durability”.
